Test results: ChEMBL document CHEMBL5465560, “Selectivity Literature for EUbOPEN Chemogenomic Library” (2024)
Blank lines part the entries; values can stand above or below the compound they belong to.

Legend:
[1] = target: Protein kinase C eta type (Homo sapiens) (UniProt P24723); assay: Selectivity interaction (Kinase panel (Z-LYTE Assay)) EUB0001632a PRKCH; settings: at 10 µM
Mu-type opioid receptor = Mu-type opioid receptor (Homo sapiens, UniProt P35372); assay: Selectivity interaction (GPCR panel (PDSP screen)) EUB0000311b OPRM1; settings: at 10 µM
Sequence of Mu-type opioid receptor (P35372 whole entry): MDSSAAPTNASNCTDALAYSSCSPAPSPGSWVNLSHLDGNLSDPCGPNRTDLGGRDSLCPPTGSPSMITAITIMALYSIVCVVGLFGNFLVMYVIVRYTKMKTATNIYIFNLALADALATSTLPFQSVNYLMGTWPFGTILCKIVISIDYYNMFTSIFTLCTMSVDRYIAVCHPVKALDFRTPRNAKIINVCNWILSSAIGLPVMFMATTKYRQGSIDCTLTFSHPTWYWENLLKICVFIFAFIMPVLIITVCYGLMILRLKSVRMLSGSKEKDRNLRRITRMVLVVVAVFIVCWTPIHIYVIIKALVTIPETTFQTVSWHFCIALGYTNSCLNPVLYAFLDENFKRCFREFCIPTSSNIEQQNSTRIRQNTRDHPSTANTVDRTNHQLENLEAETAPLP

[2] = target: Myosin light chain kinase 2, skeletal/cardiac muscle (Homo sapiens) (UniProt Q9H1R3); assay: Selectivity interaction (Kinase panel (literature)) EUB0001199aCl MYLK2; settings: at 1 µM
Sequence of Myosin light chain kinase 2, skeletal/cardiac muscle (Homo sapiens) (Q9H1R3 whole entry): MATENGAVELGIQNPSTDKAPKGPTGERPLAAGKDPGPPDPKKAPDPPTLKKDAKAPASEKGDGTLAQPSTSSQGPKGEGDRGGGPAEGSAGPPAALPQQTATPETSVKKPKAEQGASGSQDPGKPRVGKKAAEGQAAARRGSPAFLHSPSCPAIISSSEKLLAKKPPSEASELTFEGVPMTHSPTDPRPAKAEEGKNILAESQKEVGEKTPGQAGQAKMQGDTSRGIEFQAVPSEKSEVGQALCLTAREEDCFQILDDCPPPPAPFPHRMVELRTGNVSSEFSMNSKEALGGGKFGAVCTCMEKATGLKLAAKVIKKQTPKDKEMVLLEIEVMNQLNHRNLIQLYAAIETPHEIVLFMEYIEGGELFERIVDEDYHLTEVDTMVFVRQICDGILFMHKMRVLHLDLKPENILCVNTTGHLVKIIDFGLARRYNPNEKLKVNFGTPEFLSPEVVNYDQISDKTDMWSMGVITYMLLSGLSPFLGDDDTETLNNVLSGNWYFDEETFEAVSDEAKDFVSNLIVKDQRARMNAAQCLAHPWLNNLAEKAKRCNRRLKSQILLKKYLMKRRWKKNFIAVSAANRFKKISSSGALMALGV

[3] = target: Serine/threonine-protein kinase B-raf (Homo sapiens) (UniProt P15056); settings: at 10 µM
Sequence of Serine/threonine-protein kinase B-raf (Homo sapiens) (P15056 whole entry): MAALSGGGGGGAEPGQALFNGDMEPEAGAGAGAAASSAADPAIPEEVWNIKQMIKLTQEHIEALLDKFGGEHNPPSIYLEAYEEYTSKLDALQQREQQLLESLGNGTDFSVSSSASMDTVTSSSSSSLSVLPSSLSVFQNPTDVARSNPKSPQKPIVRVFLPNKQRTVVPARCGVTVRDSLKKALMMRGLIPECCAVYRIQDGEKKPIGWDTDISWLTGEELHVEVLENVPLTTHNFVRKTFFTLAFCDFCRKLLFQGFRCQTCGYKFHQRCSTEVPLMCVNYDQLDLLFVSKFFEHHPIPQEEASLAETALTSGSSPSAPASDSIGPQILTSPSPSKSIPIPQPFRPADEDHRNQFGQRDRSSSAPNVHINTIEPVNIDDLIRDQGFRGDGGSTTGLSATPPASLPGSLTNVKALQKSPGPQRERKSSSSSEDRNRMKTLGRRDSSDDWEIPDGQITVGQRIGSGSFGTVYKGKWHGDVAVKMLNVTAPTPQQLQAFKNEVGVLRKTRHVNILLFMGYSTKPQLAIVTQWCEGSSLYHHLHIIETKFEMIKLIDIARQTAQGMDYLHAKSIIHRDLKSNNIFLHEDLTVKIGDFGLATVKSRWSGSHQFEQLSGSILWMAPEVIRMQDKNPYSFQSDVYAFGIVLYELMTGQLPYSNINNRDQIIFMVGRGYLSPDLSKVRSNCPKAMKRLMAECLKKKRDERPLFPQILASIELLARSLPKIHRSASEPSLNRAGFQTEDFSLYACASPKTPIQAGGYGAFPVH

[4] = target: T1, NUAK family SNF1-like kinase 1 (Homo sapiens) (UniProt O60285); assay: Selectivity interaction (Kinase panel (Invitrogen)) EUB0000639a NUAK1; settings: at 200 nM
T1 sequence (whole entry): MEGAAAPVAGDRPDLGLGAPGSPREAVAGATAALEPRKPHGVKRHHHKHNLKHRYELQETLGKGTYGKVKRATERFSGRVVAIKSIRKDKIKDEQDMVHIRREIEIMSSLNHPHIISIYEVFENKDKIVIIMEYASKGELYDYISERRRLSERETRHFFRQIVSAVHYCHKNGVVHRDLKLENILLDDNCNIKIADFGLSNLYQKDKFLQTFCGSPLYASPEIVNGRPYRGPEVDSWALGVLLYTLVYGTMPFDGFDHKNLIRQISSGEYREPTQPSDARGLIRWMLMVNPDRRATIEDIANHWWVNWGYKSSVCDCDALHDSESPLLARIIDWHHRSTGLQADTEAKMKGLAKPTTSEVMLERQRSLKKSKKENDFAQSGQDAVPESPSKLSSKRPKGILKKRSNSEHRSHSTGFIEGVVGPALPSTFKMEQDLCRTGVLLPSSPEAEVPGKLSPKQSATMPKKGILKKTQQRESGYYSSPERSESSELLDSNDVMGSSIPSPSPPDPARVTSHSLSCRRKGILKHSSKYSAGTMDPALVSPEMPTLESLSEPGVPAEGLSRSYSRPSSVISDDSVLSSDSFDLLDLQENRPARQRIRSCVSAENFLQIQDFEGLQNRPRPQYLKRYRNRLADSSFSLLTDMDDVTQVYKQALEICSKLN

[5] = target: Cyclin-dependent kinase 2 (Homo sapiens, UniProt P24941); assay: Selectivity interaction (Kinase panel (enzymatic assay)) EUB0000595a CDK2
[6] = target: Serine/threonine-protein kinase WNK3 (Homo sapiens) (UniProt Q9BYP7); assay: Selectivity interaction (Ambit KINOMEscan and KiNATiv profiling in Jurkat cells) EUB0000090b WNK3; type: cell-based; settings: at 1 µM
Sequence of Serine/threonine-protein kinase WNK3 (Homo sapiens) (Q9BYP7 whole entry): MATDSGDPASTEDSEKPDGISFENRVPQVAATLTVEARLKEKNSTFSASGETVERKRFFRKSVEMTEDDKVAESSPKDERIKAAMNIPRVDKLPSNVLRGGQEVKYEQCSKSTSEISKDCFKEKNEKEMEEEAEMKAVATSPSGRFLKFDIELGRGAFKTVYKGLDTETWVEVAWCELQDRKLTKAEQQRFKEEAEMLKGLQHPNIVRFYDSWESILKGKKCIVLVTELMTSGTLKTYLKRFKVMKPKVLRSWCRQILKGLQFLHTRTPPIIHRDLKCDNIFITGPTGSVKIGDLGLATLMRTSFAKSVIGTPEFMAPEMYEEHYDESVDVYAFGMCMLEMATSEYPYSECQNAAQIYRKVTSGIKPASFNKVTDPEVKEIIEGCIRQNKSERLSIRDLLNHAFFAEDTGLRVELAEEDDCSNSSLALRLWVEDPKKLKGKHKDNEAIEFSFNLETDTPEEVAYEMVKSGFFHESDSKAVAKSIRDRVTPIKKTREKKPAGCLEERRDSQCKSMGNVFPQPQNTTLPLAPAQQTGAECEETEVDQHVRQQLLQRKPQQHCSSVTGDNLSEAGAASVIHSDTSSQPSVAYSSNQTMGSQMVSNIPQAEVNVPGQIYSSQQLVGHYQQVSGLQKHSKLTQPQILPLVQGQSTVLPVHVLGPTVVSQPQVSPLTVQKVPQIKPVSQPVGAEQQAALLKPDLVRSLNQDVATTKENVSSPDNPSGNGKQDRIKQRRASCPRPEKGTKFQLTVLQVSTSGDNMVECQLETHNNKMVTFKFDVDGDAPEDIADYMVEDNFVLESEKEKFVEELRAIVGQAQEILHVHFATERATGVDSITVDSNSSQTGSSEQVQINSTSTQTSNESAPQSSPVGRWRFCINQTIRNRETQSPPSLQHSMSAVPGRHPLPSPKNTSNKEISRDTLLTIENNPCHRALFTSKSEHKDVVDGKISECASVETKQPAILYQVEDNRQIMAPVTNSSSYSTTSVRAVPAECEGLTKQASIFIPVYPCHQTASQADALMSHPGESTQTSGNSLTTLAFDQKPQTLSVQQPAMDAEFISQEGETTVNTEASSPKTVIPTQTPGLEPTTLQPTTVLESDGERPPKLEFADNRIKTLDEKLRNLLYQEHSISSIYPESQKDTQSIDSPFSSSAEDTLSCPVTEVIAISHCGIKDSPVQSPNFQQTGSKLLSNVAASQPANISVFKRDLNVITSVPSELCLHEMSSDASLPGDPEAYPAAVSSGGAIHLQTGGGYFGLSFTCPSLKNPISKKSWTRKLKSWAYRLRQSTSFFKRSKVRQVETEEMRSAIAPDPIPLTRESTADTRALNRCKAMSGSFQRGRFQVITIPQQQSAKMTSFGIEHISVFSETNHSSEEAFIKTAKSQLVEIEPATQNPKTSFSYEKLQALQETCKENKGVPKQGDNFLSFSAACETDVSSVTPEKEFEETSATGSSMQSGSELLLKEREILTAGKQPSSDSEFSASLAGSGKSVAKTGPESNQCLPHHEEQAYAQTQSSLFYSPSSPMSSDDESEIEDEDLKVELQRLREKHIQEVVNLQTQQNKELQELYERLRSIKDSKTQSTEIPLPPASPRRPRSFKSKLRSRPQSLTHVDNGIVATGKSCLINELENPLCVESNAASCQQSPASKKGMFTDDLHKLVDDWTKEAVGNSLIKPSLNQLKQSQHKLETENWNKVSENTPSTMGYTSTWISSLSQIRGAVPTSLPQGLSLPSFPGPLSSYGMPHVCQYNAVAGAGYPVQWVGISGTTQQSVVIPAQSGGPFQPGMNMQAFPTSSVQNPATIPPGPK

[7] = target: Leukocyte tyrosine kinase receptor (Homo sapiens, UniProt P29376); assay: Selectivity interaction (KinomeScan (DiscoverX)) EUB0000655a LTK; settings: at 10 µM
[8] = target: T2, Cytoplasmic tyrosine-protein kinase BMX (Homo sapiens) (UniProt P51813); settings: at 10 µM
T2 sequence (whole entry): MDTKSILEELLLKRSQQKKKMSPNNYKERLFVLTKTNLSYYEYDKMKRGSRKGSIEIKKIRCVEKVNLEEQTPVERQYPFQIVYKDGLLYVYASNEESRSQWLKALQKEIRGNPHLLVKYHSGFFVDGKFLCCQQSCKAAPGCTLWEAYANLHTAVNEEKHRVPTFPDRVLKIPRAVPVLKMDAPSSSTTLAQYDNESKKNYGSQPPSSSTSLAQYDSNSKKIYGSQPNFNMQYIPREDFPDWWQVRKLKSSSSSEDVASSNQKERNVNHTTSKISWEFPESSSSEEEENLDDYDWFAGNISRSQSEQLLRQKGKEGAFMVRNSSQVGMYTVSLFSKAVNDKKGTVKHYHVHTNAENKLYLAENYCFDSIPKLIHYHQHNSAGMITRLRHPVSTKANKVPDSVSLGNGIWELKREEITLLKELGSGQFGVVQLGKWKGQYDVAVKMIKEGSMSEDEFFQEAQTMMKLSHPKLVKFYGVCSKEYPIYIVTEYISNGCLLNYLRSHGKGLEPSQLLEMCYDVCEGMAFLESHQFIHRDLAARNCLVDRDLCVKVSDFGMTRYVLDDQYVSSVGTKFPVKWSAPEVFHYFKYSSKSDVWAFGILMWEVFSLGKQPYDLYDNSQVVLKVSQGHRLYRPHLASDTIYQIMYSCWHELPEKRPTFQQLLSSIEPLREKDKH

Sequence of Protein kinase C eta type (Homo sapiens) (P24723 whole entry): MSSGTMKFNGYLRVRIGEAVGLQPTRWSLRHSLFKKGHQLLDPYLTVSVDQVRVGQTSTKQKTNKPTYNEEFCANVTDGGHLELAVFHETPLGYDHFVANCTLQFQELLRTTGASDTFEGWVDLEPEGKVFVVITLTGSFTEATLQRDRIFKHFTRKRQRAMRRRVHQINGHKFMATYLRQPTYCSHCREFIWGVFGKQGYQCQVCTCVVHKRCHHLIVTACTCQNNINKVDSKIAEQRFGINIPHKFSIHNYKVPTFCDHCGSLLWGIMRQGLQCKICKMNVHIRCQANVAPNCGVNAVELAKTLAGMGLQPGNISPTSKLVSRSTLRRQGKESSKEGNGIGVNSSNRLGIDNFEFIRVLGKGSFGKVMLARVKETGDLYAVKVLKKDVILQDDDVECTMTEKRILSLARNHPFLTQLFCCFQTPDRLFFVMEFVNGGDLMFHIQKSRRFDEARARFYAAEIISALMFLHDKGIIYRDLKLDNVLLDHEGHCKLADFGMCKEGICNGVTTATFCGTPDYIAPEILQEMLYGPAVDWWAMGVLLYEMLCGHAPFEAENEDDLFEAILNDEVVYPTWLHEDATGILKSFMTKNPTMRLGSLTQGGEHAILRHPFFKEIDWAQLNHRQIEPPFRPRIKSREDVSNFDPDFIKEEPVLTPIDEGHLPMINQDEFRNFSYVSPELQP

- % of control [1]: 19.3%
Structure (SMILES): Cn1cc(-n2cnc3c(NCc4nc5cc(Cl)c(Cl)cc5[nH]4)nc(N4CCOCC4)nc32)cn1

- % of inhibition (Mu-type opioid receptor): 30.5%
Structure (SMILES): CCc1ccccc1C(=O)Nc1n[nH]c2c(C)c(F)c(C3C(C#N)=C(C)N(C)C(C)=C3C#N)cc12 [BAY-3827]

- % of inhibition [2]: 5%
Structure (SMILES): CN1Cc2nccc(-c3cn(C)nc3-c3ccc(F)cc3)c2C1=O

- % of control [3]: 100%
Structure (SMILES): CCN(CC)CCCCNc1ncc2cc(-c3cc(OC)cc(OC)c3)c(NC(=O)NC(C)(C)C)nc2n1

- % of inhibition [4]: 2.96%
Structure (SMILES): CC[C@@H]1[C@H](F)C(=O)N[C@@H]1COc1nccc2cc(C(N)=O)c(OC)cc12 [ZIMLOVISERTIB]

Structure (SMILES): COCC(=O)NC/C=C/c1ccc2ncnc(Nc3ccc(Oc4ccc(C)nc4)c(C)c3)c2c1 [CP-724714]
- IC50 [5]: > 10 µM

Structure (SMILES): CN(C)C/C=C/C(=O)Nc1ccc(C(=O)N2CCCC(Nc3ncc(Cl)c(-c4c[nH]c5ccccc45)n3)C2)cc1 (centres undefined)
- % of control [6]: 89%

Structure (SMILES): CN(C)CCOc1ccc(-c2nc(-c3ccncc3)c(-c3ccc4c(c3)CC/C4=N\O)[nH]2)cc1
- % of control [7]: 67%

Structure (SMILES): Cc1cc([C@@H](C)Nc2ccccc2C(=O)O)c2nc(N3CCOCC3)cc(=O)n2c1 [AZD-6482]
- % of control [8]: 85%
